Experimental data published in patent EP1082127B1 (WARNER-LAMBERT COMPANY LLC, priority 1998, dated 1999).

Legend:
[1] = target: T1, ICE (Homo sapiens, UniProt P29466); test: ICE inhibition, Ki determination (fluorogenic substrate Ac-Tyr-Val-Ala-Asp-AMC); format: biochemical; settings: 15 µM Ac-Tyr-Val-Ala-Asp-AMC, 0.5 nM enzyme, 30°C, reversible competitive model
T1 sequence (P29466 120-297 limits assumed): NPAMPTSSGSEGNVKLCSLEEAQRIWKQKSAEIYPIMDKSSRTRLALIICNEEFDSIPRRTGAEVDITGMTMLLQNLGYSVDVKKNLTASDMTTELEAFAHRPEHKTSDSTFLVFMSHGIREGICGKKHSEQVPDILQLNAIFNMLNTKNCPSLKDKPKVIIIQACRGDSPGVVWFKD
T1 sequence (P29466 317-404 limits assumed): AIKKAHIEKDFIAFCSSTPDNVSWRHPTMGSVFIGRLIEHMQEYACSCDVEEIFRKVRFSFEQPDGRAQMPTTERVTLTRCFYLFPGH

[2] = target: T1, ICE; test: ICE Colorimetric Dose-Response (IC50) Assay; format: biochemical; settings: 60 minutes preincubation, 50 µM Ac-Tyr-Val-Ala-Asp-pNA, 25°C
Method in brief: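 Human ICE (~24 nM in HGE buffer, pH 7.5, activated with 5 mM DTT) preincubated 60 min at ambient temperature with two-fold serial inhibitor dilutions, in triplicate. Ac-Tyr-Val-Ala-Asp-pNA added at 50 µM; A405 followed for 1 h at 25°C starting 5 min after substrate, activity taken as mean rate.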

[3] = tested on: IL-1β production in human peripheral blood mononuclear cells (PBMCs); test: PBMC Cellular Assay - IC50 Determinations (LPS-stimulated IL-1β production, ELISA); format: cell-based; settings: human PBMCs stimulated overnight with 10 ng/mL LPS, mature IL-1β by ELISA
Method in brief: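 Ficoll-isolated human PBMCs (10^6/well, RPMI with 2% human AB serum) were stimulated overnight with LPS 10 ng/mL (E. coli 0111:B4) with or without compound. Mature IL-1β in medium measured by ELISA; viability checked by MTT over a further 4 h.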

[4] = target: T2, Ich-2 enzyme (Homo sapiens, UniProt P49662); test: Ich-2 Colorimetric Dose-Response (IC50) Assay; format: biochemical; settings: enzyme 64 nM, 60 µM Ac-Leu-Glu-Val-Asp-pNA; read-out: ICH2 IC50 (Caspase 4)
T2 sequence (P49662 81-270 limits assumed): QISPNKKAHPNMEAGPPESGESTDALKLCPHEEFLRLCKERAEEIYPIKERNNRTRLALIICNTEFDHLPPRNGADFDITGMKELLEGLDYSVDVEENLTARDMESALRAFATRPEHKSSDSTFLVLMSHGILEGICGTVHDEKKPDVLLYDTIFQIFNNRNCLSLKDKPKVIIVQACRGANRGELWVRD
T2 sequence (P49662 290-377 limits assumed): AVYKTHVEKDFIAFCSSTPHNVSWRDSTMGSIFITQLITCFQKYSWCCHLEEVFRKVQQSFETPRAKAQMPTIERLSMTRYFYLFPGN
Method in brief: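 Colorimetric readout: mean rate of A405 change over 1 h at 25°C, starting 5 min after adding 60 µM Ac-Leu-Glu-Val-Asp-pNA. Beforehand, DTT-activated (5 mM) enzyme, 64 nM in pH 7.5 Hepes/EDTA/glycerol/BSA buffer, sat 60 min at ambient temperature with serial two-fold inhibitor dilutions, tested in triplicate.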

Row | SMILES | Ki [1] | IC50 [2] | IC50 [4] | IC50 [3]
1 | CCOC1OC(=O)CC1NC(=O)C(CC(=O)NCCc1c[nH]c2ccccc12)C(C)C (centres unmarked) [Example 36, N^1-(2-Ethoxy-5-oxo-tetrahydro-furan-3-yl)-N^4-[2-(1H-indol-3-yl)-ethyl]-2-isopropyl-succinamide] | 630 nM | 599 nM | 101000 nM | 1300 nM
2 | CCOC1OC(=O)CC1NC(=O)C(CC(=O)NCCc1cn(C)c2ccccc12)C(C)C (centres unmarked) [Example 37, N^1-(2-Ethoxy-5-oxo-tetrahydro-furan-3-yl)-2-isopropyl-N^4-[2-(1-methyl-1H-indol-3-yl)-ethyl]-succinamide] | 29.7 nM | 581 nM | 128000 nM | 2000 nM
3 | CCOC1OC(=O)CC1NC(=O)[C@@H](CC(=O)NCCn1cnc2cc(Cl)c(Cl)cc21)C(C)C (some centres unmarked) [Example 38, N^4-[2-(5,6-Dichloro-benzoimidazol-1-yl)-ethyl]-N^1-(2-ethoxy-5-oxo-tetrahydro-furan-3-yl)-2-isopropyl-succinamide] | 16.4 nM | 377 nM | 18700 nM | 3400 nM
4 | CCOC1OC(=O)CC1NC(=O)C(CC(=O)NCCc1c[nH]c2c(C)cccc12)C(C)C (centres unmarked) [Example 45, N^1-(2-Ethoxy-5-oxo-tetrahydro-furan-3-yl)-N^4-[2-(7-methyl-1H-indol-3-yl)-ethyl]-2-isopropyl-succinamide] | 37 nM | 750 nM | 174000 nM | 2600 nM
5 | CC(C)[C@H](CC(=O)NCCn1cnc2cc(Cl)c(Cl)cc21)C(=O)NC(C=O)CC(=O)O (some centres unmarked) [Example 56, 3-(2-{[2-(5,6-Dichloro-benzoimidazol-1-yl)-ethylcarbamoyl]-methyl}-3-methyl-butyrylamino)-4-oxo-butyric acid] | 4.4 nM | 28.6 nM | 4020 nM | 3250 nM
6 | CC(C)C(CC(=O)NCCn1nnc2ccccc21)C(=O)NC(C=O)CC(=O)O (centres unmarked) [Example 58, 3-{2-[(2-Benzotriazol-1-yl-ethylcarbamoyl)-methyl]-3-methyl-butyrylamino}-4-oxo-butyric acid] | 31.8 nM | 336 nM | 10600 nM | 7750 nM
7 | CC(C)C(CC(=O)NCCn1ncc2ccccc21)C(=O)NC(C=O)CC(=O)O (centres unmarked) [Example 59, 3-{2-[(2-Indazol-1-yl-ethylcarbamoyl)-methyl]-3-methyl-butyrylamino}-4-oxo-butyric acid] | 33.2 nM | 56.6 nM | 10400 nM | 3750 nM

Further lines, with some results ahead:

Row | Ki [1] | IC50 [2] | IC50 [4] | SMILES | IC50 [3]
8 | 16.6 nM | 115 nM | 1100 nM | CC(C)C(CC(=O)NCCc1nnn[nH]1)C(=O)NC(CC(=O)O)C(=O)CNS(=O)(=O)CC12CCC(CC1=O)C2(C)C (centres unmarked) [Example 34, 5-(7,7-Dimethyl-2-oxo-bicyclo[2.2.1]hept-1-ylmethanesulfonylamino)-3-(3-methyl-2-{[2-(1H-tetrazol-5-yl)-ethylcarbamoyl]-methyl}-butyrylamino)-4-oxo-pentanoic acid] | 2600 nM
9 | 28.4 nM | 438 nM | 367000 nM | CCOC1OC(=O)CC1NC(=O)C(CC(=O)NCCn1c(C)nc2ccccc21)C(C)C (centres unmarked) [Example 46, N^1-(2-ethoxy-5-oxotetrahydro-furan-3-yl)-2-isopropyl-N^4-[2-(2-methyl-benzoimidazol-1-yl)-ethyl]-succinamide] | 6500 nM
10 | 20 nM | 73.7 nM | 32500 nM | CC(C)C(CC(=O)NCCn1cnc2ccccc21)C(=O)NC(C=O)CC(=O)O (centres unmarked) [Example 53, 3-{2-[(2-Benzoimidazol-1-yl-ethylcarbamoyl)-methyl]-3-methyl-butyrylamino}-4-oxo-butyric acid] | 8300 nM
11 | 4 nM | 37 nM | 11100 nM | CC(C)C(CC(=O)NCCc1cn(C)c2ccccc12)C(=O)NC(C=O)CC(=O)O (centres unmarked) [Example 54, 3-(3-Methyl-2-{[2-(1-methyl-1H-indol-3-yl)-ethylcarbamoyl]-methyl}-butyrylamino)-4-oxo-butyric acid] | 2850 nM
12 | 7.9 nM | 37 nM | 11500 nM | CC(C)C(CC(=O)NCCc1cn(C)c2ccc(F)cc12)C(=O)NC(C=O)CC(=O)O (centres unmarked) [Example 55, 3-(2-{[2-(5-Fluoro-1-methyl-1H-indol-3-yl)-ethylcarbamoyl]-methyl}-3-methyl-butyrylamino)-4-oxo-butyric acid] | 5300 nM
13 | 22.9 nM | 227 nM | 38000 nM | CC(C)C(CC(=O)N(C)CCn1cnc2ccccc21)C(=O)NC(C=O)CC(=O)O (centres unmarked) [Example 57, 3-(2-{[(2-Benzoimidazol-1-yl-ethyl)-methyl-carbamoyl]-methyl}-3-methyl-butyrylamino)-4-oxo-butyric acid] | 3750 nM
14 | 9.2 nM | 468 nM | 12700 nM | Cc1cc2ncn(CCN(C)C(=O)CC(C(=O)NC(C=O)CC(=O)O)C(C)C)c2cc1C (centres unmarked) [Example 60, 3-[2-({[2-(5,6-Dimethyl-benzoimidazol-1-yl)-ethyl]-methylcarbamoyl}-methyl)-3-methyl-butyrylamino]4-oxo-butyric acid] | 5000 nM
